{
  "source": "patent US20050064021A1",
  "about": "“Medical dressings” (priority 2001, published 2005)",
  "test_system": "cells",
  "test": "cellular adherence to alginate, cell type not stated",
  "format": "cell-based",
  "conditions": "lidocaine present with poloxamer",
  "data": [
    {"smiles": "CCN(CC)CC(=O)Nc1c(C)cccc1C", "note": "[lidocaine]", "values": [
      {"measurement": "cellular adherence properties of alginate", "result": "reduce the cellular adherence properties of alginate, for example, still further"}
    ]}
  ]
}
